Test results from publication PMC8760490, “Discovery of novel furanylbenzamide inhibitors that target oncogenic tyrosine phosphatase SHP2 in leukemia cells” (The Journal of Biological Chemistry, 2021).
Read-outs that look alike come from different tables or passages of the source.

Key:
MOLM-13 AML cells = test: Cell viability (CellTiter-Glo), MOLM-13; type: cell-based; details: Homo sapiens
Procedure: Inhibition of SHP2 has been reported to inhibit the growth of cancer cells including Kasumi-1 acute myeloid leukemia (AML) and KYSE-520 esophageal cancer cells ([30]). […] Thus, we treated two TNBC cell lines, BT-549 and MDA-MB-468, with SBI-4668 or the SHP2 allosteric inhibitor SHP099 at various concentrations and determined cell viability after 72 h, compared with the vehicle control (Fig. 4C). […] Next, we performed an 11-day colony formation assay with TNBC cells treated with SBI-4668 or SHP099 at 5, 10, or 20 μM (Fig. 4D).
(§1) Finally, we evaluated the selectivity of our top two compounds, SBI-2130 and SBI-4668, on MOLM-13 AML cells in which SHP2 was depleted using CRISPR–Cas9 KO. High-efficiency Cas9-editing MOLM-13 cells were generated by transducing MOLM-13 cells with a Cas9 lentiviral construct. Stable clones were tested for editing efficiency by performing tracking of indels by decomposition analysis ([45]), and these MOLM-13-Cas9 cells were transduced with a lentiviral construct containing an AAVS1 single-guide RNA (sgRNA) and an mCherry reporter for bulk sorting of cells with successful AAVS1 editing. SHP2 KO was achieved by transducing MOLM-13-Cas9-mCherry cells with a lentivirus, containing SHP2 dual sgRNAs, resulting in ∼80% reduction of SHP2 protein levels (Fig. 4G). SBI-2130, SBI-4668, and the SHP2 allosteric inhibitor, SHP099, were tested in parallel on regular MOLM-13 cells (expressing WT SHP2) and MOLM-13-Cas9-mCherry cells with SHP2 KO. Cells were treated with inhibitors at various concentrations (ranging from 30 μM to 58 nM) or vehicle control (DMSO) for 72 h, before cell viability was assessed.
Viability of AML and esophageal carcinoma cells was assessed using the ATP-depletion assay CellTiter-Glo (Promega). Cells were harvested at 1 × 10^6/ml to 2 × 10^6 cells/ml with cell numbers determined by trypan blue using the Countess Cell counter (Thermo Scientific) and resuspended in culture media. About 3000 cells (in 20 μl) were seeded in a 384-well format white and clear-bottom microplate (catalog no.: 781098; Greiner) spotted with test compound or vehicle control (DMSO) using an Echo 555 Liquid Handler. […] Luminescence was read on a Tecan Spark Multimode Microplate Reader, and data were analyzed using GraphPad Prism software.
For SHP2 KO, dual sgRNAs targeting SHP2 were cloned in the pLentiGuide puro vector (Addgene plasmid no. 52963 from Dr Feng Zhang) using a published protocol ([50]). […] SHP2 KO was evaluated by immunoblotting. […] For SHP2 KO, MOLM-13-Cas9-mCherry cells were seeded in nontreated 6-well plates (2 × 10^6 cells/well in 2.5 ml), with cell numbers determined by trypan blue using the Countess Cell Counter (Thermo Scientific). […]

[1] = tested on: MOLM-13-Cas9-mCherry cells with SHP2 KO; test: Cell viability, MOLM-13 SHP2 CRISPR–Cas9 KO; type: cell-based; details: 72 h, 30 μM to 58 nM
Procedure: as §1, with “SHP2 KO was achieved by transducing MOLM-13-Cas9-mCherry cells with a lentivirus, containing SHP2 dual sgRNAs, resulting in ∼80% reduction of SHP2 protein levels (Fig. 4G). SBI-2130, SBI-4668, and the SHP2 allosteric inhibitor, SHP099, were tested in parallel on regular MOLM-13 cells (expressing WT SHP2) and MOLM-13-Cas9-mCherry cells with SHP2 KO.” left out, “assessed. […]” for “assessed.”
For SHP2 KO, dual sgRNAs targeting SHP2 were cloned in the pLentiGuide puro vector (Addgene plasmid no. 52963 from Dr Feng Zhang) using a published protocol ([50]). […] SHP2 KO was evaluated by immunoblotting. […] For SHP2 KO, MOLM-13-Cas9-mCherry cells were seeded in nontreated 6-well plates (2 × 10^6 cells/well in 2.5 ml), with cell numbers determined by trypan blue using the Countess Cell Counter (Thermo Scientific). […] Cell viability was assessed using the ATP-depletion assay CellTiter-Glo as described previously, and data were analyzed using GraphPad Prism software.

[2] = 72 h, 30 μM to 58 nM, regular MOLM-13 expressing WT SHP2 (Fig. 4G), read-out: MOLM-13 cell viability IC50 (parallel to SHP2 KO)

SMILES | IC50 (MOLM-13 AML cells; [2]) [µM] | effect on viability of MOLM-13-Cas9-mCherry SHP2 KO cells [1] | IC50 (MOLM-13 AML cells; MOLM-13, 72 h, 3 days in culture (Fig. 4B), read-out: MOLM-13 cell viability IC50) [µM]
Nc1ccc(NC(=O)c2cc(-c3ccc(/C=C4\Sc5ccccc5C4=O)o3)ccc2O)cc1 [SBI-2130, (Z)-N-(4-Aminophenyl)-2-hydroxy-5-(5-((3-oxobenzo[b]thiophen-2(3H)-ylidene)methyl)furan-2-yl)benzamide] | 7.6 | either completely abrogated or greatly reduced | 
O=C(Nc1ccccc1)c1cc(-c2ccc(/C=C3\Sc4ccccc4C3=O)o2)ccc1O [SBI-4668, (Z)-2-Hydroxy-5-(5-((3-oxobenzo[b]thiophen-2(3H)-ylidene)methyl)furan-2-yl)-N-phenylbenzamide] | 15 | either completely abrogated or greatly reduced | 12
